Reference: patent publication US20240041023A1, “COMPOSITION AND METHOD OF PRESERVING VIABILITY OF CELL IN A LOW TEMPERATURE” (THE UNITED STATES OF AMERICA, AS REPRESENTED BY THE …, priority 2020, published 2024)
Entries after “also recorded” stand apart in the source; their conditions may differ.

Columns and labels:
[1] = test system: FOXO1; assay: FOXO1-dependent survival pathway and FOXO1 nuclear entry in cold stored mouse islets; type: cell-based; settings: mouse pancreatic islets; inhibitor added to HS solution
Experimental: (§1) N-EM and protease inhibitors are added into HS to make HS+.

[2] = test system: mouse pancreatic islets; assay: Cold survival of mouse pancreatic islets in preservation solutions; type: cell-based; settings: N-EM added into UW solution, 2-D08 or ginkgolic acid added into HS solution
Experimental: as §1

[3] = test system: FOXO1; assay: FOXO1 nuclear entry in corneal endothelial cells after anterior chamber injection (immunofluorescence); type: in vivo, rat; settings: 6-month-old rats
[4] = test system: mice pancreatic islets; assay: Mouse pancreatic islets stored at 4° C. versus 1640 culture solution; type: cell-based; settings: mice pancreatic islets stored at 4° C.; C6 and Apigenin added to the novel preservation solution (MM)
Experimental: In another example, mice pancreatic islets were extracted and stored at 4° C. in cold storage. The conventional 1640 culture solution which is commonly used is used as a control group.

[5] = test system: rat corneal endothelial cells; assay: Cold preservation of rat cornea: endothelial cell mortality (PI positive cells) and immunofluorescence staining; type: cell-based; settings: 6-month-old rat cornea
Experimental: After injection of 0.5 μL C6 solution (10 μM/μL in goat serum solvent) into the anterior chamber of the eye through the limbal stroma. After 90 minutes, the cornea was taken and cold stored in a corneal preservation solution. After cold storage for 3 weeks and 4 weeks, the cold storage results were evaluated by immunofluorescence staining.
The corneal preservation solution of this example is the novel corneal preservation solution prepared in Example 3, with 20 μM C6 and the protease inhibitor mixture Pi (as described in WO2019/040359A1) added, and the final concentrations of the components in the protease inhibitor mixture Pi in the cold preservation solution are respectively: pepstatin 1 μM; leupeptin 2 μM; bestatin 5 μM; […] 0.5 μM; aprotinin 0.08 μM; AEBSF 100 μM.
0.5 μL of Apigenin solution (concentration 4 μM/μL, in goat serum solvent) was injected into the anterior chamber through the limbal stroma, and 20 minutes later, the cornea was removed and stored in the novel preservation solution prepared in Example 3 (with 4 μM Apigenin and Pi previously added). After cold storage for 3 weeks and 4 weeks, the cold storage results were evaluated by immunofluorescence staining.

[6] = test system: human islets; assay: Cold storage of human islets; type: cell-based; settings: prolonged cold storage
[7] = after anterior chamber injection (C6 20 μM/μL, Apigenin 4 μM/μL, goat serum solvent), before cold stimulation
[8] = after anterior chamber injection and cold stimulation

Compound	cold-induced FOXO1 nuclear entry [1]	islet cold survival / islet cell death [2]	FOXO1 nucleus entry in corneal endothelial cells [3, 7]	FOXO1 nucleus entry in corneal endothelial cells [3, 8]	islet cell death [4]	corneal endothelial cell death, in words ([5]; cold preservation 3 weeks)	also measured
O=c1cc(-c2ccc(O)c(O)c2O)oc2ccccc12 [2-D08]	repressed	islet cell death became severe					
O=c1cc(-c2ccc(O)cc2)oc2cc(O)cc(O)c12 [Apigenin]			did not cause FOXO1 to enter nucleus	activated FOXO1 to enter the nucleus	further reduced the number of dead cells	decreased mortality	FOXO1 nucleus entry in corneal endothelial cells ([3]; after cold stimulation and rewarming): weak nuclear entering effect is still maintained; corneal endothelial cell death, in words ([5]; cold storage 4 weeks): significantly reduced; corneal endothelium structure (hexagonal structure, F-actin, nuclei) ([5]; cold storage 4 weeks (28 days, 4° C.)): largely intact endothelium
CCCCCCCCCCCCC/C=C/[C@@H](O)[C@H](CO)NC(=O)CCCCC [C6, C6 ceramide]			activate FOXO1 nucleus entry	nucleus entry signal was enhanced	further reduced the number of dead cells	reduction in the number of dead corneal endothelial cells	
CCN1C(=O)C=CC1=O [N-Ethylmaleimide]		enables longer term cold storage; also recorded: islet cold survival is improved					outcome of cold storage of human islets [6]: enables longer term cold storage
ginkgolic acid	repressed	islet cell death became severe					
